According to patent publication US12303479B2, “Chloride intracellular channel 1 for regulation of food intake” (The Regents of the University of California, priority 2019, dated 2025):

Assays:
[1] = target: T1, Clic1 (Mus musculus, UniProt Q9Z1Q5); experiment: Chronic IAA94 treatment in diet-induced obese mice, 23 days, alone or with Lira; type: in vivo; set-up: endogenous in cells; host or cells: whole live mice (C57B16 WT in the 7-day study); hypothalamus discussed as the site of action; conditions: daily injections, FIG. 8A
Method: FIGS. 8A-8I show another study on chronic IAA94 treatment. Diet-induced obese mice (fed a high fat diet for 6 weeks) received daily injections of either i) vehicle, ii) IAA94—10 mg/kg, iii) IAA94—50 mg/kg, iv) Lira, or v) combination of Lira+IAA94 (50 mg/kg). Daily food intake and body weight were monitored. Sacrifices were performed after 23 days.

[2] = target: T1, Clic1; experiment: Fasting and re-feeding model: food intake and hypothalamic neuropeptide expression after acute IAA94; type: in vivo, mice; set-up: endogenous in cells; host or cells: whole live mice (C57B16 WT in the 7-day study); hypothalamus discussed as the site of action
Method: To determine whether the modulation of Clic1 directly affected food intake, mice were treated with a specific Clic1 inhibitor, IAA94^11. Mice were fasted for 23 hours and then treated with either vehicle or IAA94 (50 mg/kg IP) and then re-fed for 1 hour. […] No changes in AgRP or Cart expression were detected.
FIGS. 1A-1C show the role of Clic1 in food intake.
FIGS. 5A-5C show acute studies in which Clic1 inhibition decreases food intake. HET/KO mice are viable, fertile and appear normal. Floxed mice are available at PMID: 20049953 Sydney. […] Male mice were injected with IAA94 (50 mg/kg) or vehicle and then refed. IAA94 (indanyloxyacetic acid 94) is a Clic1 inhibitor that blocks channels and has enzymatic properties.

[3] = target: T1, Clic1; experiment: Chronic Clic1 inhibition in diet-induced obese high fat diet-fed mice, 7 days; type: in vivo, C57B16 WT mice; set-up: endogenous in cells; host or cells: whole live mice (C57B16 WT in the 7-day study); hypothalamus discussed as the site of action; conditions: IAA94 50 mg/kg IP daily
Method: Diet-induced obese mice (fed high fat diet for 6 weeks) were injected with IAA94 (50 mg/kg, IP, daily) or vehicle. Their daily food intake and body weight were monitored. Sacrifices were performed on day 7. […] On day 7 mice were fasted for 5 hours and then treated with IAA94 or VEH and then blood collected one hour later for measurement of leptin (FIG. 7C) GDF-15 (FIG. 7D) insulin (FIG. 7E), and glucose (FIG. 7F). FIGS. 7G-7J show hypothalamic neuropeptide levels determined by quantitative PCR detection. In FIGS. 7A-7B, P<0.05 repeated measures one-way ANOVA with Sidak's multiple comparisons test. In FIGS. 7C-7J, P<0.05 students t-test.

[4] = target: Clic1 (Homo sapiens, UniProt O00299); conditions: cited from earlier work
[5] = mice fasted 23 hours, IAA94 50 mg/kg IP, re-fed for 1 hour

weight loss on chronic treatment [1]	hyperphagia in response to refeeding ([2]; IAA94 50 mg/kg, FIG. 1C)	food intake versus amount of IAA94 administered ([2]; male mice, fasting and re-feeding model, FIG. 5C)	AgRP expression (hypothalamic) [2, 5]	Cart expression (hypothalamic) [2, 5]	Pome expression (hypothalamic) [2, 5]	hypothalamic levels of Npy [2, 5]	reduction of food intake compared with vehicle treated mice [2, 5]	food intake ([3]; 7 days)	reduction of body weight ([3]; one week)	SMILES	inhibition of Clic1 [4]
significant weight loss	decreased hyperphagia	dose dependent	No changes	No changes	increased	significant reduction	~50%	significant reduction in food intake	~12%	C[C@]1(C2CCCC2)Cc2cc(OCC(=O)O)c(Cl)c(Cl)c2C1=O [IAA94, R(+)-[(6,7-Dichloro-2-cyclopentyl-2,3-dihydro-2-methyl-1-oxo-1H-inden-5-yl)-oxy]acetic acid]	
										CN(C)C(=N)NC(=N)N [metformin, N,N-dimethylbiguanide]	inhibits Clic1
